Test [1] deals with AChE. To be noted: read-out: IC50 of AChE inhibitory activities; cited from earlier work.
Test [2] has as its system AChE. Further details: method as in PMID 32118214. To be noted: read-out: IC50 of AChE inhibitory activity; cited from earlier work.
Test [3] relates to scopolamine-treated amnesiac ICR mice. Description: Passive avoidance test in scopolamine-induced amnesiac ICR mice. Particulars: scopolamine 1 mg/kg i.p.
Description: The 6-week-old male ICR mice were from the Laboratory Animal Center, College of Medicine, National Taiwan University (Taipei, Taiwan). The Prolab® RMH2500 normal diets (LabDiet Co., St. Louis, MO, USA) and water were free access during the animal experiments. After one week of acclimation, the VT-95EE or VT-95EE-EA pre-treatments were used to evaluate preventive functions as follows. […] At the first stage, the extract (VT-95EE and VT-95EE-EA)-administered group, ICR mice were treated from day 1 to day 11 by a single oral administration daily by gavage. […] Except for the blank, each mouse in all groups was intraperitoneally injected with scopolamine (1 mg/kg) 30 min after the oral administration. Each mouse in the blank group was injected with an equal volume of PBS instead of scopolamine. Each mouse received a learning and memory evaluation by a passive avoidance test 30 min after scopolamine injection at day 13 to day 14. All mice were sacrificed in the end of animal experiments at day 15, and the brain tissue of mouse in each group was isolated, weighted, and stored at −80°C for further uses.
The pre-treatment was used to evaluate preventive functions. […] At the first stage, the purified compound (vitisin A and vitisin B) administered group, ICR mice were treated from day 1 to day 9 by a single oral administration daily by gavage. […] Except for the blank, each mouse in all groups was intraperitoneally injected with scopolamine (1 mg/kg) 30 min after the oral administration. Each mouse in the blank group was injected with an equal volume of PBS instead of scoploamine. Each mouse received a learning and memory evaluation by a passive avoidance test 30 min after scopolamine injection at day 11 to day 12. All mice were sacrificed in the end of animal experiments at day 13, and the brain tissue of mice in each group was isolated, weighted, and stored at −80 °C for further uses.
The apparatus for passive avoidance test is a shuttle chamber composed of a bright box and a dark box; the dark box could be closed by a manual guillotine door (AccuScan Instruments Inc, Columbus, OH, USA). The dark box contained a wired metal floor, through which the electric foot shocks were automatically delivered in the acquisition trial. The first day was the acquisition trial, and the second day was the retention trial. For the acquisition trial, each mouse was placed around the shuttle chamber to acclimatize to the environment; 30 min later, each mouse was transferred to the bright box to record the time in the bright box (the step-through latency, s).
Test [4] addresses T1, recombinant human AChE (Homo sapiens, UniProt P22303).
T1 construct: purchased R&D Systems Inc. (Minneapolis, MN)
The experiment in a line: biochemical. To be noted: calculated from linear equation of three concentrations; read-out: IC50 of AChE inhibition. The text has this: The synthetic acetylthiocholine iodide was used as substrates for in vitro AChE activity assays. […] The released thiocholine was reacted with DTNB to generate yellowish 5-thio-2-nitrobenzoate. […] The AChE inhibitory activities (%) were as following: [(A405blank − A405sample)/(A405blank)] × 100%.

The target of test [5] is T2, recombinant human MAO-B (Homo sapiens, UniProt P27338).
T2 construct: purchased Sigma Chemical Co. (St. Louis, MO, USA)
T2 sequence (P27338 1-520): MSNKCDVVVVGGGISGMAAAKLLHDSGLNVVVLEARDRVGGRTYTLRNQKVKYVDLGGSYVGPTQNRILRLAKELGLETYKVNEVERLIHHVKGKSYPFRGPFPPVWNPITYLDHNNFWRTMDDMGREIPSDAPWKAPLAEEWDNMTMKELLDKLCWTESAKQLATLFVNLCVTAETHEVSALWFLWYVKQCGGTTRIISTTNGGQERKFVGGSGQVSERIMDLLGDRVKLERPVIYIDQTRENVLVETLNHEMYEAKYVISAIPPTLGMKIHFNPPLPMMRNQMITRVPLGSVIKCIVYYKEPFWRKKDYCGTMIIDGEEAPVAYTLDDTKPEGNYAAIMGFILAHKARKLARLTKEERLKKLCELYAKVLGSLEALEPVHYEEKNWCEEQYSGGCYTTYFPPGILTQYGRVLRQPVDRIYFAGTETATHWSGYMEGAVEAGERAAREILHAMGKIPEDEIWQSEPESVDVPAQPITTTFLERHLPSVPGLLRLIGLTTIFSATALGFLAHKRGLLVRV
Description: MAO-B inhibitory activities in vitro (kynuramine fluorescence). The class given is biochemical. Particulars: calculated from linear equation of three concentrations; read-out: IC50 of MAO-B inhibition. The method, then: The kynuramine was used as the MAO-B substrate to generate a fluorescent product, 4-hydroxyquinoline, which was used to screen MAO-B inhibitory activity assays. […] The MAO-B inhibition (%) was calculated as the following: [(Fblank − Fsample)/(Fblank)] × 100%. The IC50 of MAO-B activity was calculated from each linear equation from three used concentrations for MAO-B inhibitions.

The test system of test [6] is SH-SY5Y cells. The experiment in a line: Neuroprotective activities against MGO-induced SH-SY5Y cell deaths (SRB cell viability). The class given is cell-based, human. Particulars: then 500 μM MGO 24 h. On the procedure:
The SH-SY5Y cells were cultured at 37 °C in the mixed medium of EMEM/F12 (1:1) and 10% FBS in the humidified atmosphere and 5% CO2. […] The treated SH-SY5Y cells were washed with PBS, and then the media without (the blank) or with 500 μM MGO (the control group and sample groups) were added for additional 24-h incubation at 37 °C. The cell viability was assayed by the SRB dyes as follows. The MGO-treated SH-SY5Y cells were washed twice with PBS, fixed by 10% trichloroacetic acid, and then stained with 0.2% SRB (dissolved in 1% acetic acid) for 30 min. The unbound dyes were removed by washing the stained cells with 1% acetic acid. The bound dyes in alive cells were extracted by 500 µL of 10 mM Tris-HCl buffer (pH 7.9). The absorbance at 540 nm was measured using an ELISA reader (TECAN, Männedorf, Switzerland).

In test [7] the target is T3, AChE (Mus musculus, UniProt P21836).
T3 construct: The isolated whole brain tissue was weighted, and powdered in liquid nitrogen using a mortar and pestle; from tissue; host or cells: whole brain of ICR mice (PBS extract, supernatant)
T3 sequence (P21836 32-614): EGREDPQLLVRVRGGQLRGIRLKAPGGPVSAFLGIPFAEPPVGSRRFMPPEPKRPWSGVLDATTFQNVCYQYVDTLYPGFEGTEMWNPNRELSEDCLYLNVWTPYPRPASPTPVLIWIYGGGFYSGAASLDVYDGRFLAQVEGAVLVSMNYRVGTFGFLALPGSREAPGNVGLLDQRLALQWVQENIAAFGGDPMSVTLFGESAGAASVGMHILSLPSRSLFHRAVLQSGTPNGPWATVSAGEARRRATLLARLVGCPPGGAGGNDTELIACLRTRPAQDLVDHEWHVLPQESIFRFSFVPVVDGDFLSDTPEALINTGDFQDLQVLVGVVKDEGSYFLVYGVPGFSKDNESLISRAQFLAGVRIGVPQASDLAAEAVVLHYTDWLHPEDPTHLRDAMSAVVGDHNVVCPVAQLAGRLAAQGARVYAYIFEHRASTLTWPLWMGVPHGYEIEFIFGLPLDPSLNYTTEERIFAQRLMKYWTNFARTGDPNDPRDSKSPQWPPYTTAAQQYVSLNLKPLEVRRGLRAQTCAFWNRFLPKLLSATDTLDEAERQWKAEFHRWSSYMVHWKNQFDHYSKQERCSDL
The class given is in vivo. To be noted: vitisin A or B 40 mg/kg oral; donepezil 5 mg/kg; scopolamine-treated mice. On the procedure:
(§1) The isolated whole brain tissue was weighted, and powdered in liquid nitrogen using a mortar and pestle. The proteins in the tissue powders were suspended and extracted by 1 mL, one-fold-diluted PBS. […] The protein contents in tissue extracts were determined by the BCA^TM protein assay kit (Thermo Fisher Scientific Inc.), and BSA was used to plot the standard curve. The AChE activity in the brain extracts was determined following the previous report. […] The malondialdehyde (MDA) levels in the brain extracts was determined using acidic TBA. The 320 μL of 0.5% TBA in 10% trichloroacetic acid was premixed with 80 μL of 5-fold diluted tissue extracts, and then heated at boiling water for 20 min, and then centrifuged at 10,000 rpm, 4 °C for 30 min. […] For determining protein expressions of BDNF and its receptor, TrkB, among brain extracts of the treated mice, the immune stains were performed onto polyvinylidene difluoride (PVDF) membranes (Millipore, Bedford, MA, USA). […] The western chemiluminescent HRP substrate kit (WBKL S0050, Millipore) was used to stain the target protein expressions, which the image system [Syngene GeneGnome5 imaging system (Cambridge, UK)] was used to quantify the image levels of target protein in the immune blots.

Test [8] deals with malondialdehyde (MDA) levels. Description: MDA levels in mouse brain tissue extracts (TBA). The format is in vivo. Particulars: vitisin A or B 40 mg/kg oral; donepezil 5 mg/kg; scopolamine-treated mice. The method, then: as §1
Test [9] has as its system brain-derived neurotrophic factor (BDNF). Description: BDNF protein expression in mouse brain tissue extracts (immune blot). The class given is in vivo. Particulars: vitisin A or B 40 mg/kg oral; donepezil 5 mg/kg; scopolamine-treated mice. On the procedure:
as §1

For test [10], the system named is tropomyosin receptor kinase B (TrkB). The experiment in a line: TrkB protein expression in mouse brain tissue extracts (immune blot). To be noted: vitisin A or B 40 mg/kg oral; donepezil 5 mg/kg; scopolamine-treated mice. The class given is in vivo. On the procedure: as §1
The test system of test [11] is spontaneously hypertensive rats. Details: method as in PMID 22762395. To be noted: at the 8-h after a single oral dose of 10 mg/kg; cited from earlier work.
Test [12] deals with C57BL/6 mice treated with high fat diets. Further details: method as in PMID 26448517. To be noted: oral administration once a day at dose of 25 mg/kg with high fat diets; cited from earlier work.
Test [13] concerns endothelium-intact thoracic aortic rings of SD rats. Further details: method as in PMID 22762395. Particulars: by increasing NO releases; cited from earlier work.
Where [14] appears, read: compound study: vitisin A or vitisin B 40 mg/kg oral daily day 1-13, donepezil 5 mg/kg day 10-13.
Where [15] appears, read: pretreatment 2.5, 5, 10, and 20 μM for 24 h.

Like-named read-outs stand apart in the source and are kept apart here.

T1 sequence (P22303 32-614): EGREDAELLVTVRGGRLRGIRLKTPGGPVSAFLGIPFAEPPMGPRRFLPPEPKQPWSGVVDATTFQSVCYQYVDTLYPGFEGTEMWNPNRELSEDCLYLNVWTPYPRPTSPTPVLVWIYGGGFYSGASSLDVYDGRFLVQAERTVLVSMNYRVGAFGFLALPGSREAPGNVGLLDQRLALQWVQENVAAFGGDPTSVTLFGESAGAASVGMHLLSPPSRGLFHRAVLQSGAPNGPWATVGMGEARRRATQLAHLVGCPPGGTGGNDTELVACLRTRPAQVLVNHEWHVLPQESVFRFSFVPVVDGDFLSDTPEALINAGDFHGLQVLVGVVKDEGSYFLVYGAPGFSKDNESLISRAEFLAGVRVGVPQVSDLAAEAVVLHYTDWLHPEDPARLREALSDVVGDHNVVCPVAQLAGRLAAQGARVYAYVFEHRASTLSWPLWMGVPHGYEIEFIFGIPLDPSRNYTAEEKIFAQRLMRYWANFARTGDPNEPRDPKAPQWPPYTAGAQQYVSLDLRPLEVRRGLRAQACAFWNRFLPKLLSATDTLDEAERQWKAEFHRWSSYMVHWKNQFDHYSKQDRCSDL

Take `O=C(OC[C@H]1O[C@@H](OC(=O)c2cc(O)c(O)c(O)c2)[C@H](OC(=O)c2cc(O)c(O)c(O)c2)[C@@H](OC(=O)c2cc(O)c(O)c(O)c2)[C@@H]1O)c1cc(O)c(O)c(O)c1` [1,2,3,6-tetra-O-galloyl-β-D-glucopyranoside]: the half-maximal inhibitory concentration (IC50) in test [1] was 84.2 µM.

`COc1cc(/C=C/C(=O)CC(=O)/C=C/c2ccc(O)c(O)c2)ccc1O` [demethylcurcumin]: the IC50 in [2] was 66.9 µM.

Consider `COc1cc2c(cc1OC)C(=O)C(CC1CCN(Cc3ccccc3)CC1)C2` (stereo not drawn) [donepezil, reference compound], for which the “step-through latency in the retention trial compared to the control” value (“step-through latency … compared to the control” below) in test [3] (setting [14]) was “significant longer time”; in test [3] (extract study: VT-95EE or VT-95EE-EA 200 and 400 mg/kg oral daily day 1-15, donepezil 5 mg/kg day 12-15), “significant longer time”.

Regarding `Oc1ccc([C@H]2c3c(O)cc(O)cc3[C@H]3c4c(cc(O)cc4[C@@H]2[C@H]2c4cc(O)cc5c4[C@H](c4cc(O)cc(O)c4[C@@H]2c2ccc(O)cc2)[C@@H](c2ccc(O)cc2)O5)O[C@@H]3c2ccc(O)cc2)cc1` [hopeaphenol, (+)-hopeaphenol], the IC50 in test [4] is 8060 nM; in test [5] it was 88.2 µM. For the same compound, the “MGO-treated cell viability compared to the control” value in [6] (setting [15]) was “no significant difference”.

As to `Oc1ccc(/C=C/c2cc(O)cc(O)c2)cc1` [resveratrol, reference compound], the IC50 in test [5] was 41.3 µM. The “MGO-treated cell viability compared to the control” value in [6] (setting [15]) is given as “no significant difference”.

Turning to `O=C(OC1O[C@@H]2COC(=O)c3cc(O)c(O)c(O)c3-c3c(cc(O)c(O)c3O)C(=O)O[C@H]2[C@H](OC(=O)c2cc(O)c(O)c(O)c2)[C@H]1OC(=O)c1cc(O)c(O)c(O)c1)c1cc(O)c(O)c(O)c1` (stereo partly drawn) [tellimagrandin II], in [1], the 50% inhibitory concentration (IC50) was 18.6 µM.

`O=C(O[C@H]1[C@@H]2OC(=O)c3cc(O)c(O)c(O)c3-c3c(cc(O)c(O)c3O)C(=O)OC[C@H]2OC(O)[C@@H]1OC(=O)c1cc(O)c(O)c(O)c1)c1cc(O)c(O)c(O)c1` (stereo partly drawn) [tellimagrandin I]: in test [1], the half-inhibitory concentration (IC50) is 18.4 µM.

In the case of `Oc1ccc([C@H]2c3c(O)cc(O)cc3[C@H]3c4c(cc(O)cc4[C@@H]2c2cc(/C=C/c4cc(O)cc5c4[C@H](c4cc(O)cc(O)c4)[C@@H](c4ccc(O)cc4)O5)ccc2O)O[C@@H]3c2ccc(O)cc2)cc1` [vitisin A, (+)-vitisin A], in test [4], the concentration for half-maximal inhibition (IC50) was 1290 nM. For the same compound, in test [5], the IC50 is 4.94 µM. Also, the “MGO-treated cell viability compared to the control” value in test [6] (setting [15]) is given as “significantly to elevate MGO-treated cell viability”. Also, in test [7], the “AChE activity in brain tissue extracts compared to the control” value was “lower increase in AChE and MDA levels”. Further, in test [8], the “MDA levels in brain tissue extracts compared to the control” value was “lower increase in AChE and MDA levels”. Moreover, in [9], the “BDNF protein expression in brain tissue extracts” value was “recover both protein expressions of the reduced BDNF and TrkB”. The “TrkB protein expression in brain tissue extracts” value in [10] is “recover both protein expressions of the reduced BDNF and TrkB”. In addition, in test [11], the “greatest reduction in diastolic blood pressure” value was 25.7 mmHg and the “greatest reduction in systolic blood pressure” value was 23.6 mmHg. For the same compound, the weight gains result in test [12] is given as “reduce weight gains”. Further, the “effect on phenylephrine-induced tension” value in test [13] is reported as “vasodilating effects”. For the same compound, in test [3] (setting [14]), the “step-through latency … compared to the control” value is on record as “significant longer time”.

Turning to `Oc1ccc([C@H]2Oc3cc(O)cc(/C=C/c4ccc5c(c4)[C@@H](c4cc(O)cc6c4[C@H](c4cc(O)cc(O)c4)[C@@H](c4ccc(O)cc4)O6)[C@H](c4ccc(O)cc4)O5)c3[C@@H]2c2cc(O)cc(O)c2)cc1` [vitisin B, (−)-vitisin B], the IC50 in test [4] is 1330 nM; in test [5], 1.08 µM. Further, the “MGO-treated cell viability compared to the control” value in test [6] (pretreatment 5, 10, and 20 μM for 24 h) is recorded as “significantly to elevate MGO-treated cell viability”. The “AChE activity in brain tissue extracts compared to the control” value in test [7] is recorded as “lower increased AChE activities”. Moreover, the “MDA levels in brain tissue extracts compared to the control” value in test [8] is “no effect on reduction of MDA level”. In test [9], the “BDNF protein expression in brain tissue extracts” value is listed as “recover the reduced BDNF protein expressions”. In [3] (setting [14]), the “step-through latency … compared to the control” value is “no significant difference”.

The IC50 is the concentration that inhibits the measured activity by half.
